Results: US10501421B1, “Substituted benzimidazoles as modulators of Ras signaling” (VANDERBILT UNIVERSITY, priority 2017, dated 2019)
Structures can show the parent of a compound that is named as a salt. Where two headings read alike, the source gives them in different places.

Legend:
[1] = molecular target: Ras GEF SOS (Son of Sevenless) (Homo sapiens, UniProt Q07889); assay: SOS-mediated nucleotide exchange on Ras (BODIPY-GDP fluorescence); assay type: biochemical; details: SOS-mediated exchange of BODIPY-GDP for GTP on Ras
Summary of the method: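 Ras loaded with BODIPY-GDP was mixed in buffer with test compound, then GTP and SOS. Fluorescence change from labeled GDP/GTP exchange was followed over time, and rates came from single-exponential fits. EC50 came from a four-parameter fit of mean rate against compound concentration.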

[2] = system: H727 lung cancer cell lines (G12V K-Ras mutation); assay: Inhibition of cancer cell proliferation (CellTiter-Glo); assay type: cell-based; details: Homo sapiens, NCI-H727, 72 h, read-out: Cell proliferation activity (H727 cancer cell line proliferation IC50)
Protocol: Compounds of the present invention were measured for their ability to kill H727 lung cancer cell lines, which contain a G12V K-Ras mutation. Cell proliferation experiments were conducted in 96-well plates. Cells were plated at 1000 cells/well, incubated overnight, followed by treatment with a dose range of compound for 3 days at 37° C. Cell proliferation was assessed using a CellTiter-Glo assay (Promega) according to the manufacturer's protocol. Data were normalized to DMSO control. IC50 values were determined using a four-parameter dose-response (variable slope) equation. These assays are performed in a manner analogous to the assay disclosed in: Burns, M. C.; Sun, Q.; Daniels, R. N.; Camper, D. V.; Kennedy, J. P.; Phan, J.; Olejniczak, E. O.; Lee, T.; Waterson, A. G.; Rossanese, O. W.; Fesik, S. W. “Approach for targeting Ras with small molecules that activate SOS-mediated nucleotide exchange” Proc. Natl. Acad. Sci. 2014; 11(9): 3401-3406. PMCID: PMC3948241.

Son of Sevenless (SOS) = molecular target: T1, Son of Sevenless (SOS) (Homo sapiens, UniProt Q07889); assay: Binding to SOS, fluorescence polarization anisotropy (FPA) probe displacement; details: displacement of FITC-conjugated probe (Example 285), affinity calculated from IC50
T1 sequence (Q07889 564-1049 limits assumed): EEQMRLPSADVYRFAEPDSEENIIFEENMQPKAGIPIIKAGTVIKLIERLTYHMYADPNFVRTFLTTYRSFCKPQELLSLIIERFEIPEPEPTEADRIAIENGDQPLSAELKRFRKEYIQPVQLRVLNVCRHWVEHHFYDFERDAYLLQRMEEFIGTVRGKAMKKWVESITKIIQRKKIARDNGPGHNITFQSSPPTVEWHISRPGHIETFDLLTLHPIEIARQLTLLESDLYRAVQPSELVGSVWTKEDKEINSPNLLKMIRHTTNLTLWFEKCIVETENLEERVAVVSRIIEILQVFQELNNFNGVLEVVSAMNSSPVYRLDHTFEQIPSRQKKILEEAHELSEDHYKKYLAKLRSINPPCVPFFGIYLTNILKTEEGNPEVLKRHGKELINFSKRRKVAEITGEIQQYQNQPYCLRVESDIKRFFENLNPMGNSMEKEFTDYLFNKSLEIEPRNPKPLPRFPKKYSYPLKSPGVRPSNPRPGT
Summary of the method: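 A FITC-conjugated probe compound was incubated with SOS in buffer, and its displacement was tracked as a change in fluorescence anisotropy across a test-compound dose range. IC50 came from a four-parameter variable-slope fit, and binding affinity was calculated from it.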

[3] = H727 cells, 3 days treatment, CellTiter-Glo

Chain of Ras GEF SOS (Son of Sevenless) (P01112 1-166 partner limits assumed, one chain of several): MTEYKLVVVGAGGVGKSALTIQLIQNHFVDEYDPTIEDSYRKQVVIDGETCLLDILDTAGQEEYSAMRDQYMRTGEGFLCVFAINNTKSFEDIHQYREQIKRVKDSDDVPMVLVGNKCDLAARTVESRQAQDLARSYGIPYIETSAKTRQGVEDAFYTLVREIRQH

IC50 [2, 3] [µM] | Ki (Son of Sevenless (SOS)) [µM] | Compound | EC50 [1] [µM] | IC50 [2] [µM]
1 to 5 | – | COc1ccc(-c2cccc3c2nc(N2CCNCC2)n3Cc2ccc(C(F)(F)F)cc2)cc1OC [Example 91, 4-(3,4-dimethoxyphenyl)-2-(piperazin-1-yl)-1-(4-(trifluoromethyl)benzyl)-1H-benzo[d]imidazole] | 5 to 30 | –
1 to 5 | – | Nc1ccc(-c2cccc3c2nc(N2CCNCC2)n3Cc2ccc(C(F)(F)F)cc2)cc1 [Example 92, 4-(2-(piperazin-1-yl)-1-(4-(trifluoromethyl)benzyl)-1H-benzo[d]imidazol-4-yl)aniline] | 1 to 5 | –
< 1 | – | CC(C)c1ccccc1-c1cccc2c1nc(N1CCNCC1)n2Cc1ccc(C(F)(F)F)cc1 [Example 95, 4-(2-isopropylphenyl)-2-(piperazin-1-yl)-1-(4-(trifluoromethyl)benzyl)-1H-benzo[d]imidazole] | 1 to 5 | –
1 to 5 | – | Cc1cc(-c2cccc3c2nc(N2CCNCC2)n3Cc2ccc(C(F)(F)F)cc2)nn1C [Example 96, 4-(1,5-dimethyl-1H-pyrazol-3-yl)-2-(piperazin-1-yl)-1-(4-(trifluoromethyl)benzyl)-1H-benzo[d]imidazole] | 1 to 5 | –
< 1 | – | CC(C)c1ccccc1-c1cccc2c1nc(N1CCNCC1)n2Cc1cc(F)cc(F)c1 [Example 97, 1-(3,5-difluorobenzyl)-4-(2-isopropylphenyl)-2-(piperazin-1-yl)-1H-benzo[d]imidazole] | 1 to 5 | –
> 20 | – | Cc1cc(Cn2c(NCCN)nc3c(Cl)nccc32)ccc1F [Example 223, N^1-(4-chloro-1-(4-fluoro-3-methylbenzyl)-1H-imidazo[4,5-c]pyridin-2-yl)ethane-1,2-diamine] | 5 to 30 | –
1 to 5 | – | Cc1cc(Cn2c(N3CCNCC3)nc3ccc(OC(C)C(F)(F)F)nc32)ccc1F (stereo not drawn) [Example 258, 3-(4-fluoro-3-methylbenzyl)-2-(piperazin-1-yl)-5-((1,1,1-trifluoropropan-2-yl)oxy)-3H-imidazo[4,5-b]pyridine] | 5 to 30 | –
< 1 | – | Cc1cc(Cn2c(N3CCCC(N)C3)nc3ccc(OC(C)C(F)(F)F)nc32)ccc1F (stereo not drawn) [Example 261, 1-(3-(4-fluoro-3-methylbenzyl)-5-((1,1,1-trifluoroprpan-2-yl)oxy)-3H-imidazo[4,5-b]pyridin-2-yl)piperidin-3-amine] | 30 to 100 | –
1 to 5 | – | Cc1cc(-c2c(C)c(C)cc3c2nc(N2CCNCC2)n3Cc2ccc(F)c(Cl)c2)n(C)n1 [Example 286, 1-(3-chloro-4-fluorobenzyl)-4-(1,3-dimethyl-1H-pyrazol-5-yl)-5,6-dimethyl-2-(piperazin-1-yl)-1H-benzo[d]imidazole] | – | –
– | 0.5 to 1 | Cc1cc(OCCN2CCN(C)CC2)c2nc(NCCN)n(Cc3cc(C)c(F)c(C)c3)c2c1 [Example 331, N^1-(1-(4-fluoro-3,5-dimethylbenzyl)-6-methyl-4-(2-(4-methylpiperazin-1-yl)ethoxy)-1H-benzo[d]imidazol-2-yl)ethane-1,2-diamine] | < 1 | –
– | > 5 | Cc1cc2nc(N3CCNC(=O)C3)n(Cc3cc(C)c(F)c(C)c3)c2cc1C [Example 332, 4-(1-(4-fluoro-3,5-dimethylbenzyl)-5,6-dimethyl-1H-benzo[d]imidazol-2-yl)piperazin-2-one] | 5 to 30 | –

The next lines start with the compound.

Compound | IC50 [2, 3] [µM] | Ki (Son of Sevenless (SOS)) [µM] | EC50 [1] [µM] | IC50 [2] [µM]
Cc1ccccc1-c1cccc2c1nc(N1CCNCC1)n2Cc1ccc(F)c(Cl)c1 [Example 79, 1-(3-chloro-4-fluorobenzyl)-2-(piperazin-1-yl)-4-(o-tolyl)-1H-benzo[d]imidazole trifluoroacetate] | – | – | 1 to 5 | 5 to 20
Fc1ccc(Cn2c(N3CCNCC3)nc3c(-c4ccccc4Cl)cccc32)cc1Cl [Example 84, 1-(3-chloro-4-fluorobenzyl)-4-(2-chlorophenyl)-2-(piperazin-1-yl)-1H-benzo[d]imidazole trifluoroacetate] | – | – | 1 to 5 | 1 to 5
Cc1nn(C)c(C)c1-c1cccc2c1nc(N1CCNCC1)n2Cc1ccc(F)c(Cl)c1 [Example 85, 1-(3-chloro-4-fluorobenzyl)-2-(piperazin-1-yl)-4-(1,3,5-trimethyl-1H-pyrazol-4-yl)-1H-benzo[d]imidazole trifluoroacetate] | – | – | 1 to 5 | 5 to 20
Cn1nccc1-c1cccc2c1nc(N1CCNCC1)n2Cc1ccc(F)c(Cl)c1 [Example 86, 1-(3-chloro-4-fluorobenzyl)-4-(1-methyl-1H-pyrazol-5-yl)-2-(piperazin-1-yl)-1H-benzo[d]imidazole trifluoroacetate] | – | – | 1 to 5 | 5 to 20
Fc1ccc(Cn2c(N3CCNCC3)nc3c(-c4ccc(C(F)(F)F)cc4)cccc32)cc1Cl [Example 87, 1-(3-chloro-4-fluorobenzyl)-2-(piperazin-1-yl)-4-(4-(trifluoromethyl)phenyl)-1H-benzo[d]imidazole] | 5 to 20 | – | 5 to 30 | –
CCNCc1c(C)c(C)cc2c1nc(N1CCNCC1)n2Cc1cc(C)c(F)c(C)c1 [Example 131, N-((1-(4-fluoro-3,5-dimethylbenzyl)-5,6-dimethyl-2-(piperazin-1-yl)-1H-benzo[d]imidazol-4-yl)methyl)ethanamine trifluoroacetate] | – | – | 1 to 5 | < 1
Cc1cc(CNCC(C)C)c2nc(N3CCNCC3)n(Cc3cc(C)c(F)c(C)c3)c2c1 [Example 133, N-((1-(4-fluoro-3,5-dimethylbenzyl)-6-methyl-2-(piperazin-1-yl)-1H-benzo[d]imidazol-4-yl)methyl)-2-methylpropan-1-amine trifluoroacetate] | – | – | 1 to 5 | 1 to 5
Cc1cc2c(nc(N3CCNCC3)n2Cc2cc(C)c(F)c(C)c2)c(CO)c1C [Example 138, (1-(4-fluoro-3,5-dimethylbenzyl)-5,6-dimethyl-2-(piperazin-1-yl)-1H-benzo[d]imidazol-4-yl)methanol trifluoroacetate] | – | – | 1 to 5 | 5 to 20
Cc1cc(Cn2c(N3CCNCC3)nc3c(C4NCCc5c4[nH]c4ccccc54)cc(Cl)cc32)cc(C)c1F (stereo not drawn) [Example 140, 1-(6-chloro-1-(4-fluoro-3,5-dimethylbenzyl)-2-(piperazin-1-yl)-1H-benzo[d]imidazol-4-yl)-2,3,4,9-tetrahydro-1H-pyrido[3,4-b]indole trifluoroacetate] | – | – | 1 to 5 | 1 to 5
C=C[C@H](N)c1cc(Cl)cc2c1nc(N1CCNCC1)n2Cc1cc(C)c(F)c(C)c1 [Example 155, (S)-1-(6-chloro-1-(4-fluoro-3,5-dimethylbenzyl)-2-(piperazin-1-yl)-1H-benzo[d]imidazol-4-yl)prop-2-en-1-amine trifluoroacetate] | – | – | < 1 | < 1
CC[C@H](N)c1cc(Cl)cc2c1nc(N1CCNCC1)n2Cc1cc(C)c(F)c(C)c1 [Example 157, (S)-1-(6-chloro-1-(4-fluoro-3,5-dimethylbenzyl)-2-(piperazin-1-yl)-1H-benzo[d]imidazol-4-yl)propan-1-amine trifluoroacetate] | – | – | < 1 | 1 to 5
CC[C@H](N)c1cc(Cl)cc2c1nc(NCCN)n2Cc1cc(C)c(F)c(C)c1 [Example 158, (S)—N^1-(4-(1-aminopropyl)-6-chloro-1-(4-fluoro-3,5-dimethylbenzyl)-1H-benzo[d]imidazol-2-yl)ethane-1,2-diamine trifluoroacetate] | – | – | 1 to 5 | 5 to 20
